# Results taken from publication PMC10891067, “A co-assembly platform engaging macrophage scavenger receptor A for lysosome-targeting protein degradation” (Nature Communications, 2024).
# Non-standard residues stand in square brackets, D forms with d. Residues, ends and D or L forms follow the SMILES beside them. *: point of attachment. Acetyl(2-naphthyl) = O=C(Cc1ccc2ccccc2c1)*; Ahx = NCCCCCC(=O)O
# Key:
# [1] = system: IMQ-induced psoriasis-like mouse model; experiment: IMQ-induced psoriasis mouse model: acanthosis (H&E of back skin); type: in vivo; settings: day 7, H&E of back skin, IMQ psoriasis BALB/c mice, i.p. 7 days: fm-17Abp 15, fm-SRAL 22, 17A-Lytaca 15+22, control-Lytaca 12+22 mg/kg/day, MTX 1 mg/kg/twice day
# Protocol: 8 to10-week-old female BALB/c mice were purchased from Peking University Health Science Center Department of Laboratory Animal Science. They were randomly divided into seven groups. Vehicle group (PBS administration) was treated with 62.5 mg/day of Vaseline cream while the other six groups were treated with 62.5 mg/day of 5% IMQ cream (Sichuan Med-shine Pharmaceuticals) on the shaved back skin (2 cm × 3 cm) of mice (days 1–7).
# The psoriasis area and severity index (PASI) consists of measurements of skin erythema, scale, and thickness. They were scored independently on a scale of 0–4: 0, none; 1, slight; 2, moderate; 3, marked; 4, very marked. The cumulative PASI score was obtained by adding the 3 index scores (scores of 0–12). The thickness of the mouse skin was measured using a micrometer, and the average value was measured three times a day. For histopathology analysis, tissues from the euthanized animals were fixed in formalin and embedded in paraffin. Sections (5 μm thickness) were stained with H&E.
# IL-17A [2] = target: T1, IL-17A (Mus musculus, UniProt Q62386); experiment: IL-17A protein level in skin lesion (ELISA); type: in vivo; settings: i.p. 7 days: fm-17Abp 15, fm-SRAL 22, 17A-Lytaca 15+22, control-Lytaca 12+22 mg/kg/day, MTX 1 mg/kg/twice day
# T1 sequence (Q62386 26-158): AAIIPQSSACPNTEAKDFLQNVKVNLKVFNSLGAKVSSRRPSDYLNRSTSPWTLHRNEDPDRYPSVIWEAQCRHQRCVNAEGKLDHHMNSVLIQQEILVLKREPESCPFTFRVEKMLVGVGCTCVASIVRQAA
# Protocol: Plasma cytokine concentrations of IL-17A, IL-6, IL-22, and CCL-20 were determined by a commercial ELISA kit (Dogesce). For skin IL-17A detection, the back skin of mice was isolated and triturated with a grinder (Tiss-24, Jing Xin). Cell debris was precipitated via centrifugation (1000×g, 4 °C, 15 min), and IL-17A was measured in the supernatant using the IL-17A ELISA kit (Dogesce) and normalized to the total protein concentration, which was determined via BCA assay.
# RAW264.7 cells = experiment: IL-17A uptake mechanism: endocytic pathway inhibitors, 4 °C, NaN3; type: cell-based; settings: RAW264.7, 0.5 μg/ml IL-17A + 50 μM mixed fi-SRAL and fi-17Abp, 6 h; NaN3 100 mM, CPZ 3 μg/ml, Me-β-CD 0.5 mM, EIPA 20 μM
# Protocol: To evaluate the uptake mechanism of IL-17A, RAW264.7 cells were pretreated with various inhibitors for 30 min at 37 °C: chlorpromazine (clathrin-mediated endocytosis inhibitor, 3 μg/ml), Me-β-cyclodextrin (0.5 mM, lipid rafting pathway inhibitors), EIPA (20 μM, pinocytosis inhibitor). In addition, the cells were cultured at 4 °C or treated with NaN3 (100 mM) to assess the effect of energy on IL-17A uptake. After that, the cells were cultured with fresh medium containing inhibitors at the same concentrations, 50 μM 17Abp and SRAL mixture, and 0.5 μg/ml IL-17A for 6 h. The uptake of the IL-17A by cells was analyzed through flow cytometry according to the procedure mentioned above.
# Supplementary Fig. 5 Uptake of IL-17A by macrophages is an energy-dependent process involving several endocytosis pathways. a) Uptake of IL-17A in RAW264.7 cells incubated at 4 °C or pretreated with 100 mM NaN3 for 0.5 h followed by the addition of 0.5 μg/ml IL-17A and 50 μM mixed fi-SRAL and fi-17Abp peptides for 6 h. b) Uptake of IL-17A in RAW264.7 cells incubated with 0.5 mM Me-β-CD (lipid rafting pathway inhibitor), 20 μM EIPA (pinocytosis inhibitor) or 3 μg/ml CPZ (clathrin-endocytosis inhibitor) for 0.5 h followed by the addition of 0.5 μg/ml IL-17A and 50 μM mixed fi-SRAL and fi-17Abp peptides for 6 h. MFI was determined by flow cytometry and the relative MFI was normalized to the control group. Data are presented as the mean ± SD, and error bars represent the standard deviation of biological replicates (n = 3). P values were determined by one-way ANOVA with Tukey’s multiple comparisons test. […]
# SR-A = target: T2, SR-A (Mus musculus, UniProt P30204); experiment: SR-A inhibition assay with poly I / poly C (IL-17A uptake); type: cell-based; settings: RAW264.7, with exogenous IL-17A and the peptide mixture
# T2 construct: endogenous in cells; host or cells: RAW264.7
# T2 sequence (P30204 1-458): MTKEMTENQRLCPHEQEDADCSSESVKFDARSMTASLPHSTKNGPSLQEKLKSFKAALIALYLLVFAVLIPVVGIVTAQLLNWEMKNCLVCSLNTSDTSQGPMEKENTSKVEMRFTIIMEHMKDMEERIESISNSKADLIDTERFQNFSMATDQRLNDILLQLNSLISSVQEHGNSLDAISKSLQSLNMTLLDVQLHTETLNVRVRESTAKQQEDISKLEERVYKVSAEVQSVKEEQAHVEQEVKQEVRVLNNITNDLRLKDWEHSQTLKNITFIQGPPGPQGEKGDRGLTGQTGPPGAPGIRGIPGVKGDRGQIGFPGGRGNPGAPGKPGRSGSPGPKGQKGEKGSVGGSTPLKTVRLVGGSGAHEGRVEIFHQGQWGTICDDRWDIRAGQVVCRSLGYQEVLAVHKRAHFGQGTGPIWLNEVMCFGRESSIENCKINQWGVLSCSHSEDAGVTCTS
# Protocol: To verify the involvement of SR-A in the IL-17A endocytosis, RAW264.7 cells were treated with the SR-A inhibitor Poly I or the control Poly C at the indicated concentration together with the 50 μM 17Abp and SRAL mixture and 0.5 μg/ml IL-17A for 6 h. Then, flow cytometry analysis was used to measure the intracellular IL-17A level according to the procedure mentioned above.
# IL-17A [3] = target: T1, IL-17A; experiment: Lysosome inhibition assay (LPT, BafA1); type: cell-based; parameters: host or cells: added exogenously to RAW264.7, SR-A-KO RAW264.7, U-118 MG, DC 2.4 or HaCaT cells; settings: RAW264.7, 0.5 μg/ml IL-17A + 50 μM 17A-Lytaca, 6 h
# Protocol: To confirm the involvement of lysosomes, RAW264.7 cells were pretreated with PBS, LPT (0.1 mg/ml), or BafA1 (100 nM) for 2 h at 37 °C. […] The accumulation of IL-17A in the cells was then measured via flow cytometry, following the aforementioned procedure.
# PD-L1 = target: T3, PD-L1 (Mus musculus, UniProt Q9EP73); experiment: Western blot of PD-L1 in RAW264.7 cells; type: cell-based; settings: Suppl Fig.18c, 50 μM, PBS = 100
# T3 construct: endogenous in cells; host or cells: RAW264.7 (WT and SR-A-KO)
# Protocol: Proteins were extracted using RIPA buffer (Beyotime) supplemented with protease inhibitors (Beyotime) and quantified using the BCA assay (Solarbio). SDS–PAGE was performed to separate proteins, which were then transferred to PVDF membranes (EMD Millipore). Next, the membranes were blocked in 5% fat-free milk for 2 h and incubated with primary antibodies at 4 °C overnight. including Rabbit anti-GAPDH antibody (1:5000, ab181602, Abcam), Mouse anti-GAPDH antibody (1:5000, 60004-1-Ig, Proteintech), Rabbit anti-CD2O4 antibody (1:1000, ab151707, Abcam), Mouse anti-PD-L1antibody (1:1000, 66248-1-Ig, Proteintech), Mouse anti-His-Tag antibody (1:2000, CW0286, CoWin Biosciences), Phospho-p44/42 MAPK (Erk1/2) (Thr202/Tyr204) (D13.14.4E) XP® Rabbit mAb, (1:1000, 4370T, Cell Signaling Technology), p44/42 MAPK (Erk1/2) (137F5) Rabbit mAb (1:1000 4695T, Cell Signaling Technology). After washing the membranes three times, secondary antibodies including HRP-conjugated Affinipure Goat Anti-Mouse IgG(H + L) (1:5000, SA00001-1, Proteintech), HRP-conjugated Affinipure Goat Anti-Rabbit IgG(H + L) (1:5000, SA00001-2, Proteintech) labeled with horseradish peroxidase (Proteintech) were applied at room temperature for 2 h and the immunoreactivity was visualized by supper ECL western blotting substrate (Coolaber). The densitometric analysis was performed by ImageJ software (NIH).
# T3 sequence (Q9EP73 19-290): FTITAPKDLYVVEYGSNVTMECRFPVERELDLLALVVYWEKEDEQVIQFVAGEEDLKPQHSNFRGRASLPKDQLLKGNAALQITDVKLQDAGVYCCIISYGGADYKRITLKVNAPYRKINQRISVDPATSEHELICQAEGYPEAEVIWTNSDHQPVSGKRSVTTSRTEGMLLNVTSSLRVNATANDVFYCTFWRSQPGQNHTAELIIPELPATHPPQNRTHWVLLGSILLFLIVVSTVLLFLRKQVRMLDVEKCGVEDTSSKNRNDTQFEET
compound,measurement,setting,value
"CN(Cc1cnc2nc(N)nc(N)c2n1)c1ccc(C(=O)N[C@@H](CCC(=O)O)C(=O)O)cc1 [MTX, methotrexate]",Acanthosis,[1]; animal 1 of n = 5,66.3 μm
same,Acanthosis,[1]; animal 2 of n = 5,89.8 μm
same,Acanthosis,[1]; animal 3 of n = 5,73.7 μm
same,Acanthosis,[1]; animal 4 of n = 5,59.4 μm
same,Acanthosis,[1]; animal 5 of n = 5,85.7 μm
same,Skin IL-17A,"IL-17A [2]; day 7, animal 1 of n = 5, IMQ psoriasis BALB/c mice",60.0538 pg/mg protein
same,Skin IL-17A,"IL-17A [2]; day 7, animal 2 of n = 5, IMQ psoriasis BALB/c mice",102.2787 pg/mg protein
same,Skin IL-17A,"IL-17A [2]; day 7, animal 3 of n = 5, IMQ psoriasis BALB/c mice",103.0959 pg/mg protein
same,Skin IL-17A,"IL-17A [2]; day 7, animal 4 of n = 5, IMQ psoriasis BALB/c mice",57.7792 pg/mg protein
same,Skin IL-17A,"IL-17A [2]; day 7, animal 5 of n = 5, IMQ psoriasis BALB/c mice",78.3380 pg/mg protein
[N-]=[N+]=[N-].[Na+] [NaN3],Effect of endocytosis/energy inhibitor on IL-17A uptake (in words),RAW264.7 cells,significantly reduced intracellular fluorescence signals of IL-17A
polyinosinic acid [Poly I],Effect on IL-17A uptake efficiency (in words),SR-A,concentration-dependent inhibition
"CC(=O)N[C@@H](CC(C)C)C(=O)N[C@@H](CC(C)C)C(=O)N[C@H](C=O)CCCNC(=N)N [LPT, Leupeptin]",IL-17A accumulation in cells with lysosome inhibitor (in words),IL-17A [3],significantly higher IL-17A accumulation in cells
"CN(C)CCCN1c2ccccc2Sc2ccc(Cl)cc21 [CPZ, chlorpromazine]",Effect of endocytosis/energy inhibitor on IL-17A uptake (in words),RAW264.7 cells,significant decreases in cellular fluorescence
"CCN(c1nc(N)c(C(=O)N=C(N)N)nc1Cl)C(C)C [EIPA, 5-(N-ethyl-N-isopropyl)-amiloride]",Effect of endocytosis/energy inhibitor on IL-17A uptake (in words),RAW264.7 cells,decreased IL-17A uptake
methyl-β-cyclodextrin [Me-β-CD],Effect of endocytosis/energy inhibitor on IL-17A uptake (in words),RAW264.7 cells,significant decreases in cellular fluorescence
C[C@H](NC(=O)[C@H](CCC(=O)O)NC(=O)[C@H](C)NC(=O)[C@H](CCC(=O)O)NC(=O)[C@H](C)NC(=O)[C@H](CCC(=O)O)NC(=O)[C@H](C)NC(=O)[C@H](CCC(=O)O)NC(=O)[C@H](C)NC(=O)[C@H](CCC(=O)O)NC(=O)[C@H](C)NC(=O)[C@H](CCC(=O)O)NC(=O)[C@H](C)NC(=O)[C@H](CCC(=O)O)NC(=O)[C@H](C)NC(=O)[C@H](CCC(=O)O)NC(=O)[C@H](C)NC(=O)[C@H](CCC(=O)O)NC(=O)[C@H](C)NC(=O)[C@H](CCC(=O)O)NC(=O)[C@H](C)NC(=O)[C@H](CCC(=O)O)NC(=O)[C@H](C)NC(=O)[C@H](CCC(=O)O)NC(=O)[C@H](C)NC(=O)[C@H](CCC(=O)O)NC(=O)[C@H](C)NC(=O)[C@H](CCC(=O)O)NC(=O)[C@H](C)NC(=O)[C@H](CCC(=O)O)NC(=O)CCCCCNC(=O)[C@H](Cc1ccccc1)NC(=O)[C@H](Cc1ccccc1)NC(=O)Cc1ccc2ccccc2c1)C(N)=O [nf-SRAL] ({Acetyl(2-naphthyl)}-FF[Ahx]EAEAEAEAEAEAEAEAEAEAEAEAEAEAEA-NH2),Relative intensity of PD-L1,PD-L1; replicate 1,96
same,Relative intensity of PD-L1,PD-L1; replicate 2,106
same,Relative intensity of PD-L1,PD-L1; replicate 3,102
polycytidylic acid [Poly C],Effect on IL-17A uptake efficiency (in words),SR-A,no discernible impact
